Experimental data reported in paper PMC6220303 (EMBO Molecular Medicine, 2018).
Like-named read-outs stand apart in the source and are kept apart here.

What was measured:
C57/BL6 mice = test: Hair depigmentation study, 8 weeks dosing; format: in vivo, mouse
Method: Compounds were either mixed in feed or given as a suspension orally. […] Vehicle or compounds were given orally in a volume of 10 ml/kg once daily (mornings) for 8 weeks. Vehicle: 0.1% Tween‐80 in 0.5% methylcellulose in water. […] The vehicle group was treated with food pellets containing no compound. The β1 antibody was dosed 0.5 mg/kg body weight, once weekly intraperitoneally, diluted in 90 nM NaCl, 50 nM Tris pH 7.1.

clinical = format: in vivo, human; conditions: for Mean concentration: AUC divided by 24 hours; for Tmax / Cmax / AUC(0-t) / half-life / concentration at 3 months / AUC(0-inf): human, plasma, oral; for concentration at 3 months: read-out: steady-state plasma level
Method: The lower limit of quantification (LLOQ) was 1 ng/ml in plasma and 2 ng/ml in urine and CSF, except for the 3‐month study where the method for CSF was more sensitive (LLOQ 0.1 ng/ml). Plasma PK parameters were calculated using actual recorded sampling times and non‐compartmental methods with Phoenix WinNonlin version 6.4 (Certara, Inc., Princeton, NJ, USA).
For further details, see the Appendix Table S10 in Appendix and the accompanying clinical protocols synopsis (Appendix Table S11).

C[C@@]1(c2nc(NC(=O)c3ncc(C(F)(F)F)cc3Cl)ccc2F)CO[C@@](C)(C(F)(F)F)C(N)=N1 [CNP520]
changes in other pigmented organs (hair follicle, choroid, retina pigmented epithelium) by histopathology (C57/BL6 mice; C57/BL6 mice, 8 weeks): Neither did we observe any changes in other pigmented organs
Aβ40 reduction in the brain (C57/BL6 mice; at doses with no change in hair color): more than 90%
hair depigmentation / change in hair color (C57/BL6 mice; male C57/BL6 mice, 8 weeks oral once daily): No change in hair color
Mean concentration (clinical; 2 mg, 3 months, Day 91): 25.6 nM
Mean concentration (clinical; 10 mg, 3 months, Day 91): 123 nM
Mean concentration (clinical; 10 mg, 14 days, Day 14): 114 nM
Mean concentration (clinical; 30 mg, 14 days, Day 14): 292 nM
Mean concentration (clinical; 35 mg, 3 months, Day 91): 371 nM
Mean concentration (clinical; 85 mg, 3 months, Day 91): 910 nM
Mean concentration (clinical; 90 mg, 14 days, Day 14): 762 nM
Mean concentration (clinical; 300 mg, 14 days, Day 14): 2312 nM
Tmax (clinical; both sexes, 30 mg, 14 days, Day 14, median (min–max)): 3 h
Cmax (clinical; both sexes, 30 mg, 14 days, Day 14, ≥ 60 years, mean (CV%)): 211 ng/mL
AUC(0-t) (clinical; both sexes, 30 mg, AUC 0–24h, 30 mg, 14 days, Day 14, mean (CV%)): 3580 ng·h/mL
half-life (clinical; both sexes, participants ≥ 60 years of age, single dose, read-out: mean terminal T 1/2): 81.4 to 109 h
concentration at 3 months (clinical; both sexes, 2-mg dose daily, participants ≥ 60 years): 11.9 ng/mL
concentration at 3 months (clinical; both sexes, 2-mg dose daily): 23 nM
concentration at 3 months (clinical; both sexes, 85-mg dose daily, participants ≥ 60 years): 425 ng/mL
concentration at 3 months (clinical; both sexes, 85-mg dose daily): 828 nM
free C max (clinical; human plasma, 85 mg, 3-month study): 48 nM
Tmax (clinical; 2 mg, 3 months, Day 91, median (min–max)): 2.5 h
Cmax (clinical; 2 mg, 3 months, Day 91, ≥ 60 years, mean (CV%)): 16.6 ng/mL
AUC(0-t) (clinical; 2 mg, AUC 0–24h, 2 mg, 3 months, Day 91, mean (CV%)): 313 ng·h/mL
Tmax (clinical; 10 mg, 3 months, Day 91, median (min–max)): 2.5 h
Cmax (clinical; 10 mg, 3 months, Day 91, ≥ 60 years, mean (CV%)): 81 ng/mL
Tmax (clinical; 10 mg, 14 days, Day 14, median (min–max)): 2.53 h
Cmax (clinical; 10 mg, 14 days, Day 14, ≥ 60 years, mean (CV%)): 84.3 ng/mL
AUC(0-t) (clinical; 10 mg, AUC 0–24h, 10 mg, 3 months, Day 91, mean (CV%)): 1500 ng·h/mL
AUC(0-t) (clinical; 10 mg, AUC 0–24h, 10 mg, 14 days, Day 14, mean (CV%)): 1400 ng·h/mL
Cmax (clinical; 10 mg, single dose 10 mg, adults (6), mean (%CV), read-out: Cmax): 20.9 ng/mL
Tmax (clinical; 10 mg, single dose 10 mg, adults (6), median (min–max), read-out: Tmax): 4 h
AUC(0-inf) (clinical; 10 mg, single dose 10 mg, adults (n = 5), mean (%CV)): 948 ng·h/mL
half-life (clinical; 10 mg, single dose 10 mg, adults (n = 5), mean (%CV), read-out: T1/2 (converted)): 61.3 h
Cmax (clinical; 10 mg, single dose 10 mg, adults ≥ 60 years (6), mean (%CV), read-out: Cmax): 16 ng/mL
Tmax (clinical; 10 mg, single dose 10 mg, adults ≥ 60 years (6), median (min–max), read-out: Tmax): 4.02 h
AUC(0-inf) (clinical; 30 mg, single dose 30 mg, adults (12), mean (%CV)): 3070 ng·h/mL
Cmax (clinical; 30 mg, single dose 30 mg, adults (12), mean (%CV), read-out: Cmax): 65.7 ng/mL
half-life (clinical; 30 mg, single dose 30 mg, adults (12), mean (%CV), read-out: T1/2 (converted)): 64.3 h
Tmax (clinical; 30 mg, single dose 30 mg, adults (12), median (min–max), read-out: Tmax): 3.5 h
Tmax (clinical; 35 mg, 3 months, Day 91, median (min–max)): 2.5 h
Cmax (clinical; 35 mg, 3 months, Day 91, ≥ 60 years, mean (CV%)): 237 ng/mL
AUC(0-t) (clinical; 35 mg, AUC 0–24h, 35 mg, 3 months, Day 91, mean (CV%)): 4450 ng·h/mL
AUC(0-t) (clinical; 75 mg, AUC 0–72h, food effect, 75 mg Fasted (10), adults, mean (%CV)): 4450 ng·h/mL
AUC(0-t) (clinical; 75 mg, AUC 0–72h, food effect, 75 mg Fed (10), adults, mean (%CV)): 4870 ng·h/mL
Cmax (clinical; 75 mg, food effect, 75 mg Fasted (10), adults, mean (%CV), read-out: Cmax): 164 ng/mL
Tmax (clinical; 75 mg, food effect, 75 mg Fasted (10), adults, median (min–max), read-out: Tmax): 3.5 h
Cmax (clinical; 75 mg, food effect, 75 mg Fed (10), adults, mean (%CV), read-out: Cmax): 179 ng/mL
